Laboratory results as given in US11926616B2, “Aminopyrazine diol compounds as PI3K-γ inhibitors” (Incyte Corporation, priority 2018, dated 2024).
Like-named read-outs stand apart in the source and are kept apart here.

Assays:
[1] = biological target: PI3Kδ (p110δ/p85α) Recombinant Human Protein (Homo sapiens (Human), UniProt O00329); test: PI3Kδ Scintillation Proximity Assay; type: biochemical; conditions: 20 μM PIP2, 2 μM ATP, 3.4 nM PI3Kδ, 120 min, room temperature
Text: Example C. PI3Kδ Scintillation Proximity Assay Materials: [γ-^33P]ATP (10 mCi/mL) and Wheat Germ Agglutinin (WGA) YSi SPA Scintillation Beads was purchased from Perkin Elmer (Waltham, MA). Lipid kinase substrate, D-myo-Phosphatidylinositol 4,5-bisphosphate (PtdIns(4,5)P2)D (+)-sn-1,2-di-O-octanoylglyceryl, 3-O-phospho linked (PIP2), CAS 204858-53-7, was purchased from Echelon Biosciences (Salt Lake City, UT). PI3Kδ (p110δ/p85α) Recombinant Human Protein was purchased from Eurofins (St Charles, MO). ATP, MgCl2, DTT, EDTA, MOPS and CHAPS were purchased from Sigma Aldrich (St. Louis, MO). The kinase reaction was conducted in polystyrene 384-well Greiner Bio-one white plate from Thermo Fisher Scientific in a final volume of 25 μL. Inhibitors were first diluted serially in DMSO and added to the plate wells before the addition of other reaction components. The final concentration of DMSO in the assay was 2%. The PI3Kδ assay was carried out at room temperature in 20 mM MOPS, pH 6.7, 10 mM MgCl2, 5 mM DTT and CHAPS 0.03%. Reactions were initiated by the addition of ATP, the final reaction mixture consisted of 20 μM PIP2, 2 μM ATP, […] [γ-^33P] ATP, 3.4 nM PI3Kδ. Reactions were incubated for 120 min and terminated by the addition of 40 μL SPA beads suspended in quench buffer: 163 mM potassium phosphate pH 7.8, 20% glycerol, 25 mM EDTA. The final concentration of SPA beads is 1.0 mg/mL. After the plate sealing, plates were shaken overnight at room temperature and centrifuged at 1500 rpm for 10 min, the radioactivity of the product was determined by scintillation counting on Topcount (PerkinElmer). IC50 determination was performed by fitting the curve of percent of the solvent control activity versus the log of the inhibitor concentration using the GraphPad Prism 6.0 software.

[2] = biological target: PI3Kγ (p110γ) Recombinant Human Protein (Homo sapiens (Human), UniProt P48736); test: PI3K-γ Scintillation Proximity Assay; type: biochemical; conditions: 20 μM PIP2, 2 μM ATP, 13 nM PI3Kγ, 120 min, room temperature
Chain of PI3Kγ (p110γ) Recombinant Human Protein (P48736 whole entry): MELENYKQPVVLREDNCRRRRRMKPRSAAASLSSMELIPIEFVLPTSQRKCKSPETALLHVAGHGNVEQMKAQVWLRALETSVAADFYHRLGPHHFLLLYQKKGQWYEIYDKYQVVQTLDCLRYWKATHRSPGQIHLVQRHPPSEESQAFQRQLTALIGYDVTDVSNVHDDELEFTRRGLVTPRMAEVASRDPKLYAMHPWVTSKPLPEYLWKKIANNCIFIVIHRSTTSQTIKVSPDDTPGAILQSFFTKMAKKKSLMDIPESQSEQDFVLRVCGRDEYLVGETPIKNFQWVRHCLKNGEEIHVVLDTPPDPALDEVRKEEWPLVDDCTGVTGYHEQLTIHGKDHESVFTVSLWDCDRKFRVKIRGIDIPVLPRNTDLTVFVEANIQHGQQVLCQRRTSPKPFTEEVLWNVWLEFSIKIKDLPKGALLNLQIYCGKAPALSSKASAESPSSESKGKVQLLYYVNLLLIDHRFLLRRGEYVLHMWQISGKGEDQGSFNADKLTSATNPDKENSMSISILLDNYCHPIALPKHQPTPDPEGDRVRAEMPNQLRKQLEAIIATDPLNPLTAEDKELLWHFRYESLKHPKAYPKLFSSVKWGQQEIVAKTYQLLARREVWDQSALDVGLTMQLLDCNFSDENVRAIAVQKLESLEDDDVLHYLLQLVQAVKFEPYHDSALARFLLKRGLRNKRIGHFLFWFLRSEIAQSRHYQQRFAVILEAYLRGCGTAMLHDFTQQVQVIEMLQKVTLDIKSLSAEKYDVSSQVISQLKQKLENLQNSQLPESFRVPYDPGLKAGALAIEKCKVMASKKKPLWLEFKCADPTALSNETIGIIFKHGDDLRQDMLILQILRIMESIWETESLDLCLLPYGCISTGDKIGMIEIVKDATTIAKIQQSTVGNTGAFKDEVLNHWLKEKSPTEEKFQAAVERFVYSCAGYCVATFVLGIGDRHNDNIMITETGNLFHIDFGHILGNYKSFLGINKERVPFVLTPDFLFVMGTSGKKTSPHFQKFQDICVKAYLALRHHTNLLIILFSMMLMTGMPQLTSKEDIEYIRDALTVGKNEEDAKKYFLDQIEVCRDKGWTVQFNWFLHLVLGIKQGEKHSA
Text: Example B. PI3K-γ Scintillation Proximity Assay Materials: [γ-^33P]ATP (10 mCi/mL) and Wheat Germ Agglutinin (WGA) YSi SPA Scintillation Beads was purchased from Perkin Elmer (Waltham, MA). Lipid kinase substrate, D-myo-Phosphatidylinositol 4,5-bisphosphate (PtdIns(4,5)P2)D (+)-sn-1,2-di-O-octanoylglyceryl, 3-O-phospho linked (PIP2), CAS 204858-53-7, was purchased from Echelon Biosciences (Salt Lake City, UT). PI3Kγ (p110γ) Recombinant Human Protein was purchased from Life technology (Grand Island, NY). ATP, MgCl2, DTT, EDTA, MOPS and CHAPS were purchased from Sigma Aldrich (St. Louis, MO). The kinase reaction was conducted in polystyrene 384-well Greiner Bio-one white plate from Thermo Fisher Scientific in a final volume of 25 μL. Inhibitors were first diluted serially in DMSO and added to the plate wells before the addition of other reaction components. The final concentration of DMSO in the assay was 2%. The PI3Kγ assay was carried out at room temperature in 20 mM MOPS, pH 6.7, 10 mM MgCl2, 5 mM DTT and CHAPS 0.03%. Reactions were initiated by the addition of ATP, the final reaction mixture consisted of 20 μM PIP2, 2 μM ATP, 0.5 μCi [γ-^33P] ATP, 13 nM PI3Kγ. Reactions were incubated for 120 min and terminated by the addition of 40 μL SPA beads suspended in quench buffer: 163 mM potassium phosphate pH 7.8, 20% glycerol, 25 mM EDTA. The final concentration of SPA beads is 1.0 mg/mL. After the plate sealing, plates were shaken overnight at room temperature and centrifuged at 1500 rpm for 10 min, the radioactivity of the product was determined by scintillation counting on Topcount (Perkin-Elmer). IC50 determination was performed by fitting the curve of percent of the solvent control activity versus the log of the inhibitor concentration using the GraphPad Prism 6.0 software.

[3] = test system: Phosphorylated Ribosomal Protein S6 (RPS6) in THP-1 cells; test: THP-1 RPS6 ELISA Assay; type: cell-based, Human; conditions: THP-1 cells, serum starved, 2 hours compound, 10 nM MCP-1 for 15 minutes, Phospho-RPS6 ELISA, read-out: PI3Kγ_THP1_RPS6_ELISA IC50
Method: Example A. THP-1 RPS6 ELISA Assay
To measure the Phosphorylated Ribosomal Protein S6 (RPS6) in cell lysates, THP-1 cells (Human Acute Monocytic Leukemia) are purchased from ATCC (Manassas, VA) and maintained in RPMI with 10% FBS (Gibco/Life Technologies, Carlsbad, CA). For the assay, THP-1 cells are serum starved overnight in RPMI, then plated in RPMI (2×10^5 cells/well in 90 μL) into 96-well flat-bottom tissue culture treated plates (Corning, Corning, NY), in the presence or absence of a concentration range of test compounds. Covered plates are incubated for 2 hours at 37° C., 5% CO2 then treated with or without 10 nM MCP-1(MYBioSource, San Diego, CA) for 15 minutes at 37° C., 5% CO2. Plates are centrifuged at 1600 RPM and supernatants are removed. Cells are lysed in Lysis Buffer (Cell Signaling, Danvers, MA) with Protease Inhibitor (Calbiochem/EMD, Germany), PMSF (Sigma, St Louis MO), HALTS (Thermo Fisher, Rockford, IL) for 30 min on wet ice. Cell lysates are frozen at −80° C. before testing. The lysates are tested in the Human/Mouse/Rat Phospho-RPS6 ELISA (R&D Systems, Inc. Minn, MN). The plate is measured using a microplate reader (SpectraMax M5—Molecular Devices, LLC Sunnyvale, CA) set to 450 nm with a wavelength correction of 540. IC50 determination is performed by fitting the curve of inhibitor percent inhibition versus the log of the inhibitor concentration using the GraphPad Prism 5.0 software.

Chain of PI3Kδ (p110δ/p85α) Recombinant Human Protein (O00329 whole entry): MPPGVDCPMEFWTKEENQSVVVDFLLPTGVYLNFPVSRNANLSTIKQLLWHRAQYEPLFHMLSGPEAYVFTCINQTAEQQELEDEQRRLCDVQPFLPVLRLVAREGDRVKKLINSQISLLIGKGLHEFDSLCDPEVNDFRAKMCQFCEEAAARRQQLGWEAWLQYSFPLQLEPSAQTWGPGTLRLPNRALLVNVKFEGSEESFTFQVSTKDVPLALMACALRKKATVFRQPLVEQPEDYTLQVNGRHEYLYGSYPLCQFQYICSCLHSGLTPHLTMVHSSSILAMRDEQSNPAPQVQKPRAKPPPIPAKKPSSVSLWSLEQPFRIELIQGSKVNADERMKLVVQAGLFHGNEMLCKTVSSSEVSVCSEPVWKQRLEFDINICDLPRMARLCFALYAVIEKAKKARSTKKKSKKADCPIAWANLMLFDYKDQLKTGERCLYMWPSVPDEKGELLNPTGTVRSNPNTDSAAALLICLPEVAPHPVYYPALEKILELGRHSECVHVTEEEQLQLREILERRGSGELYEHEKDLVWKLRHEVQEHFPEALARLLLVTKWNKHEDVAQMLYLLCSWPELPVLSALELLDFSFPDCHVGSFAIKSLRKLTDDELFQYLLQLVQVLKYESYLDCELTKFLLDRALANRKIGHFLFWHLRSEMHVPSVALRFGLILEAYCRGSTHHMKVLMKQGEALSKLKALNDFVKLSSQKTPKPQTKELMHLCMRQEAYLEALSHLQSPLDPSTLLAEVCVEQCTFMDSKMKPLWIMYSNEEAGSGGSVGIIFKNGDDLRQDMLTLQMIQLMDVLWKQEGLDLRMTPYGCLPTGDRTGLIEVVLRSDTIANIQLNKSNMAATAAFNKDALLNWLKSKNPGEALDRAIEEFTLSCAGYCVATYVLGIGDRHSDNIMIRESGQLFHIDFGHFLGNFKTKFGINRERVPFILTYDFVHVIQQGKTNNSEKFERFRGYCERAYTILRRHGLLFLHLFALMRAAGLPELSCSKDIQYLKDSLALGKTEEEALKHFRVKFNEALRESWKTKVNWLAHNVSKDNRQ
Chain of PI3Kδ (p110δ/p85α) Recombinant Human Protein (P27986 whole entry partner): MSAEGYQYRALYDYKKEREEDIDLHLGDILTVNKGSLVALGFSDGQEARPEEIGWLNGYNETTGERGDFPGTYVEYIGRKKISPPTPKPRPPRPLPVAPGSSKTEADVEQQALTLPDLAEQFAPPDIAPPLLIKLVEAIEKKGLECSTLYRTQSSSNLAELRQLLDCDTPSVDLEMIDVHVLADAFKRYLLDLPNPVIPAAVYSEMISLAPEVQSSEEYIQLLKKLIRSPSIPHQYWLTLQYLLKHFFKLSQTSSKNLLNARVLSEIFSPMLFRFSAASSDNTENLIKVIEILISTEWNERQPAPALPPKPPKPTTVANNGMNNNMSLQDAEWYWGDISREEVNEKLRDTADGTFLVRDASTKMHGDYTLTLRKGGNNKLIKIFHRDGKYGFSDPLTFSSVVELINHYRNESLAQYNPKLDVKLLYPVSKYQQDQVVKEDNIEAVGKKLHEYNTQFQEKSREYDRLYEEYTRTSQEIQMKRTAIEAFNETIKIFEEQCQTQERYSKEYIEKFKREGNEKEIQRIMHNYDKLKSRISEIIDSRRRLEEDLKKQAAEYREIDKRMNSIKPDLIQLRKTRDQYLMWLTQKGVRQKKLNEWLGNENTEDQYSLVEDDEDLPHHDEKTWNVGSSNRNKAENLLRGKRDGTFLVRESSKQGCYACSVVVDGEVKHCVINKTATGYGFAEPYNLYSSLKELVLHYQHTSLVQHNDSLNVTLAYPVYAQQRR

| IC50 [1] | IC50 [2] | IC50 ([3]; Homo sapiens) | Compound | IC50 [3] |
| --- | --- | --- | --- | --- |
| ≤ 500 nM | ≤ 100 nM | < 100 nM | Cc1ccc(C(O)(C(C)(C)O)C(F)(F)F)cc1-c1cnc(N)c(C(=O)NC2CCOCC2)n1 (stereo not shown) [Example 22, 3-Amino-6-(2-methyl-5-(1,1,1-trifluoro-2,3-dihydroxy-3-methylbutan-2-yl)phenyl)-N-(tetrahydro-2H-pyran-4-yl)pyrazine-2-carboxamide] |  |
| ≤ 100 nM | ≤ 100 nM | < 100 nM | Cc1ccc(C(O)(CO)C(F)F)cc1-c1cnc(N)c(C(=O)NC2CCOCC2)n1 (single isomer, unassigned) [Example 42] |  |
| ≤ 100 nM | ≤ 100 nM | < 100 nM | Cc1ccc(C(O)(CO)C(F)F)cc1-c1cnc(N)c(C(=O)NC2(C)CCOC2)n1 [Example 47, 3-amino-6-(5-((S)-1,1-difluoro-2,3-dihydroxypropan-2-yl)-2-methylphenyl)-N-(3-methyltetrahydrofuran-3-yl)pyrazine-2-carboxamide] |  |
| ≤ 500 nM | ≤ 100 nM | < 500 nM | Cc1ccc(C(O)(CO)C(F)(F)F)cc1-c1cnc(N)c(C2CC(C(=O)N3CC(O)C3)C2)n1 (single isomer, unassigned) [Example 24, (3-(3-Amino-6-(2-methyl-5-(1,1,1-trifluoro-2,3-dihydroxypropan-2-yl)phenyl)pyrazin-2-yl)cyclobutyl)(3-hydroxyazetidin-1-yl)methanone] |  |
| ≤ 100 nM | ≤ 100 nM | < 100 nM | [2H]C([2H])([2H])c1ccc(C(O)(C(O)C(F)(F)F)C(F)(F)F)cc1-c1cnc(N)c(-c2c[nH]nc2C)n1 (stereo not shown) [Example 21, 2-(3-(5-Amino-6-(3-methyl-1H-pyrazol-4-yl)pyrazin-2-yl)-4-(methyl-d3)phenyl)-1,1,1,4,4,4-hexafluorobutane-2,3-diol] |  |
| ≤ 100 nM | ≤ 100 nM | < 100 nM | Cc1ccc(C(O)(CO)C(F)F)cc1-c1cnc(N)c(C(=O)NC23CCC(O)(CC2)C3)n1 (single isomer, unassigned) [Example 44, 3-Amino-6-(5-(1,1-difluoro-2,3-dihydroxypropan-2-yl)-2-methylphenyl)-N-(4-hydroxybicyclo[2.2.1]heptan-1-yl)pyrazine-2-carboxamide] |  |
| ≤ 500 nM | ≤ 100 nM | < 500 nM | Cc1ccc(C(O)(CO)C(F)(F)F)cc1-c1cnc(N)c(C2CN(S(=O)(=O)c3ccn(C)n3)C2)n1 (stereo not shown) [Example 23, 2-(3-(5-Amino-6-(1-((1-methyl-1H-pyrazol-3-yl)sulfonyl)azetidin-3-yl)pyrazin-2-yl)-4-methylphenyl)-3,3,3-trifluoropropane-1,2-diol] |  |
| ≤ 500 nM | ≤ 100 nM | < 100 nM | [2H]C([2H])([2H])c1ccc(C(O)(CO)C(F)(F)F)cc1-c1cnc(N)c(C(=O)N[C@H]2CCCC[C@@H]2O)n1 (single isomer, unassigned) [Example 27] |  |
| ≤ 100 nM | ≤ 100 nM | < 100 nM | [2H]C([2H])([2H])c1ccc(C(O)(CO)C(F)(F)F)cc1-c1cnc(N)c(-c2cnc(C)o2)n1 (single isomer, unassigned) [Example 16, 2-(3-(5-Amino-6-(2-methyloxazol-5-yl)pyrazin-2-yl)-4-(methyl-d3)phenyl)-3,3,3-trifluoropropane-1,2-diol] |  |
| < 2000 nM | ≤ 100 nM | < 500 nM | [2H]C([2H])([2H])c1ccc(C(O)(CO)C(F)F)cc1-c1cnc(N)c(C(=O)N[C@@H]2CCCC[C@H]2O)n1 (single isomer, unassigned) [Example 39] |  |
| < 2000 nM | ≤ 100 nM | < 500 nM | [2H]C([2H])([2H])c1ccc(C(O)(CO)C(F)F)cc1-c1cnc(N)c(C(=O)N[C@H]2CCCC[C@@H]2O)n1 (single isomer, unassigned) [Example 38] |  |
| ≤ 100 nM | ≤ 100 nM | < 100 nM | [2H]C([2H])([2H])c1ccc(C(O)(CO)C(F)(F)F)cc1-c1cnc(N)c(C(=O)NC2CCOCC2)n1 (single isomer, unassigned) [Example 17, 3-Amino-6-(2-(methyl-d3)-5-(1,1,1-trifluoro-2,3-dihydroxypropan-2-yl)phenyl)-N-(tetrahydro-2H-pyran-4-yl)pyrazine-2-carboxamide] |  |
| ≤ 100 nM | ≤ 100 nM | < 100 nM | [2H]C([2H])([2H])c1ccc(C(O)(CO)C(F)(F)F)cc1-c1cnc(N)c(C(=O)NC23CCC(CO)(C2)C3)n1 (single isomer, unassigned) [Example 31] |  |
| ≤ 100 nM | ≤ 100 nM |  | Cc1ccc(C(O)(CO)C(F)(F)F)cc1-c1cnc(N)c(C(=O)NCC(C)(C)C#N)n1 (single isomer, unassigned) [Example 34] |  |
| ≤ 500 nM | ≤ 100 nM |  | Cc1ccc(C(O)(CO)C(F)(F)F)cc1-c1cnc(N)c(C(F)(F)F)n1 (single isomer, unassigned) [Example 25, 2-(3-(5-Amino-6-(trifluoromethyl)pyrazin-2-yl)-4-methylphenyl)-3,3,3-trifluoropropane-1,2-diol] |  |

| Compound | IC50 [1] | IC50 [2] | IC50 ([3]; Homo sapiens) | IC50 [3] |
| --- | --- | --- | --- | --- |
| Cc1ccc([C@](O)(CO)C(F)F)cc1-c1cnc(N)c(C(=O)N2CCC[C@@H]2CO)n1 [Example 45, (3-Amino-6-(5-((S)-1,1-difluoro-2,3-dihydroxypropan-2-yl)-2-methylphenyl)pyrazin-2-yl)((R)-2-(hydroxymethyl)pyrrolidin-1-yl)methanone] | < 2000 nM | ≤ 100 nM |  | < 500 nM |
| [2H]C([2H])([2H])c1ccc(C(O)(CO)C(F)F)cc1-c1cnc(N)c(C(=O)NC23CCC(O)(CC2)C3)n1 (single isomer, unassigned) [Example 18, 3-Amino-6-(5-(1,1-difluoro-2,3-dihydroxypropan-2-yl)-2-(methyl-d3)phenyl)-N-(4-hydroxybicyclo[2.2.1]heptan-1-yl)pyrazine-2-carboxamide] | ≤ 100 nM | ≤ 100 nM | < 100 nM |  |
